Measured values reported in paper PMC13242511, “Disrupting Notch signalling by a small molecule inhibiting dihydroorotate dehydrogenase activity” (Scientific Reports, 2026).

Experiments:
Assay type in all cases: cell-based
MDA-MB-436 cells = experiment: Growth inhibition, metabolic activity (CellTiter-Glo); details: Homo sapiens; MDA-MB-436, six days; read-out: approximated IC50, metabolic activity
Text: (§1) We next investigated whether compounds A-E affected growth and viability of cell lines from T-cell acute lymphoblastic leukaemia (T-ALL) and breast cancer, two tumour types in which elevated Notch signalling has been implicated in tumorigenesis. […] When testing analogues of compounds B and C, five of the seven B analogues and one of the two C analogues produced dose–response curves and IC50s, which however were higher compared to the original hits (Supplemental Fig. 5A; IC50s are presented in Supplemental Table 6).
(§2) Compounds were spotted on white 384-well tissue culture plates (Greiner, cat #781080) using an Echo 525 Acoustic liquid handler (Labcyte). Cells were grown to 80% confluence, detached if required, counted and 20 µl containing 2000–4000 cells per well was then seeded in each well and cultivated for three (4,000 cells seeded) and six days (2,000 cells seeded). […] Luciferase activity (reading out metabolic activity) was determined using the CellTiter-Glo 2.0 kit (CTG, Promega, cat #G9242) following the manufacturer’s instructions and luminescence was measured on a SpectraMaxi3 or Varioscan plate reader (Molecular Devices, Thermofisher).

BT-20 cells = experiment: as above; details: Homo sapiens; BT-20, six days; read-out: approximated IC50, metabolic activity
Text: as §1, §2

Notch signalling = experiment: DHODH inhibitor and uridine rescue experiment (Notch reporter assay); details: 1 and 10 µM, 24 h
Experimental: HEK293T Notch reporter cells (#A1-11) were grown to 80% confluency, detached and mixed with the indicated compounds and doses with or without uridine (Sigma-Aldrich, cat #U3003). 10,000 cells/well were then seeded into 96-well cell culture plates (ThermoFisher, cat #136102) and incubated for 24 h. DMSO treatment with or without uridine served as control for each treatment. Cells were then subjected to Notch reporter assays, and luciferase signals were recorded on a Varioscan Lux microplate reader (ThermoFisher). Reporter signals from each treatment were normalised to the respective DMSO control, as described above and three independent assays were recorded with at least two technical replicates per treatment.

NOTCH1 = experiment: Cell surface biotinylation experiment; details: MDA-MB-231, 2 µM, 24 h; Fig. 8B
Experimental: For labelling of membrane proteins, MDA-MB-231 cells were grown to 80% confluency in 6-well cell culture dishes (ThermoFisher, cat #104675) and treated with 2 µM of the indicated compounds for 24 h. Plates were then put on ice for 10 min to slow down cellular metabolism and halt internalisation of membrane proteins. Next, 0.5 mg/ml Sulfo-NHS-Biotin (ThermoFisher, cat #21217) in PBS was added to every second well for 40 min and non-treated wells served as controls. Excess of biotin was removed by washing the plates with PBS followed by incubation with 100 mM glycin (Sigma-Aldrich, cat #G8898) in PBS on ice. Wells were washed twice with ice-cold PBS and next, 500 µl lysis buffer was added to each well (50 mM Tris–HCl pH 7.4, 150 mM NaCl, 1% Triton X-100, (Sigma-Aldrich, cat #X100), 2 mM EDTA, including protease and phosphatase inhibitors, Thermofisher, cat #78442). […] NOTCH1 TMICD western blot band intensity was quantified using Fiji (ImageJ) after background subtraction. Relative enrichment of NOTCH1 protein present at the cell surface was calculated with IP/Input ratio (IP NOTCH1/Input NOTCH1). Input and corresponding IP fraction of a treatment were separated on the same gel and bands were measured while non-saturated. Two independent biological replicates were assessed.

SMILES	IC50 (MDA-MB-436 cells)	IC50 (BT-20 cells)	effect on Notch reporter activity after addition of uridine (Notch signalling; plus 100 µM uridine)	Notch reporter assay activity (Notch signalling; without uridine)	NOTCH1 surface presentation (NOTCH1)
Cc1ccc2[nH]c3c(c2c1)CCOC31CCN(Cc2ccccc2-c2ccccc2)CC1 [compound B]	2000 nM	3200 nM	–	–	–
COc1cccc(CNc2ccc(N3CCCCC3)cc2)c1OCc1cccs1 [compound C]	–	–	reversed	reduced the reporter assay activity	not hindered
